This passage reports binding, ΔTm and Kd results from article PMC11425212 (2024).

What is called ΔTm is the shift of the melting midpoint relative to a reference.

For test [1], the system named is ATF4-G4 (Pu22T) (DNA, G4) TAAGGGAGGGAGGGAAGGGAGC
The experiment in a line: NMR solution structure and 1H NMR titration. The following applies: 10 mM K+ (structure); 50 mM K+ (titration); pH 7, 25 °C; 2.11 mM DNA with 2.4 equivalents COP.

Test [2] has the same test system. Put plainly: CD melting at 264 nm. The settings on record: 5 mM K+ (potassium phosphate); pH 7; 20 µM DNA; COP concentration not given.
Test [3] has the same test system. The experiment in a line: fluorescence titration. The following applies: 50 mM K+; 0.2 µM COP, DNA added stepwise; excitation 377 nm, emission 520-600 nm.

In the case of `c1c2c(cc3c1OCO3)-c1cc3ccc4c(c3c[n+]1CC2)OCO4`, the binding entry in test [1] is listed as “yes”. The ΔTm in test [2] was 25 °C. Further, the Kd in test [3] is recorded as ~ 3.9 µM.
